Data on 17 molecules can be found in article PMC7279487, “Dual Target Ligands with 4-tert-Butylphenoxy Scaffold as Histamine H3 Receptor Antagonists and Monoamine Oxidase B Inhibitors” (International Journal of Molecular Sciences, 2020).

The target in one data set is T1, hMAO B (Homo sapiens, UniProt P27338).
T1 construct: purchased Sigma Aldrich M7441
T1 sequence (P27338 1-520): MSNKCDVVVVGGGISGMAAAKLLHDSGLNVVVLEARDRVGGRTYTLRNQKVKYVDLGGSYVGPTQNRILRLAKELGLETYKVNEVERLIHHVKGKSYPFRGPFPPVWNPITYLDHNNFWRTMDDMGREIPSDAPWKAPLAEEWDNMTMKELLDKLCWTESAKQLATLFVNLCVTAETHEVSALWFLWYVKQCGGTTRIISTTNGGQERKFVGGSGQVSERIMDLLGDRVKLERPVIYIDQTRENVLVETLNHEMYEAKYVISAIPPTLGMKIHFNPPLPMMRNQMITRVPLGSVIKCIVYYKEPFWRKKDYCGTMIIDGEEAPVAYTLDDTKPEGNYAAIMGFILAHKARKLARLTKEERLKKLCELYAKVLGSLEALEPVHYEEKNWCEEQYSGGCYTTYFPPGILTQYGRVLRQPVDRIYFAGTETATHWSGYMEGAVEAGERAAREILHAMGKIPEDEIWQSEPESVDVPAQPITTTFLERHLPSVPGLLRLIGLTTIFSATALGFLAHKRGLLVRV
The data set is described as follows: hMAO B inhibition, fluorometric Amplex Red MAO assay. The following applies: percent of inhibition at 1 μM; mean of two independent experiments; read-out: MAO B (%Inh.). The data set is classed as biochemical.

Data set [1] concerns the target T2, human histamine H3 receptor (hH3R) (Homo sapiens, UniProt Q9Y5N1).
T2 construct: expressed in transfected cells
The data set can be described thus: radioligand displacement binding assay, [3H]Nα-methylhistamine, HEK293 cells stably expressing hH3R. The following applies: HEK293 cells stably expressing human H3R, mean (95% CI). As for the experimental part:
[^3H]N^α-methylhistamine was used as a radioligand.
The radioligand displacement binding assay was carried out in HEK-293 cells stably expressing the recombinant hH3R as described by Kottke et al. with slight modifications. […] Obtained data from at least three experiments (in at least duplicates) were analyzed with GraphPad Prism 6.1 (San Diego, CA, USA) using nonlinear regression (one-site competition on logarithmic scale), and Ki values were transformed from IC50 according to Cheng-Prusoff. Statistical analysis was performed on −log Ki values.

Molecules are shown by their SMILES. Structures can show the parent of a compound that is named as a salt.

T2 sequence (Q9Y5N1 whole entry): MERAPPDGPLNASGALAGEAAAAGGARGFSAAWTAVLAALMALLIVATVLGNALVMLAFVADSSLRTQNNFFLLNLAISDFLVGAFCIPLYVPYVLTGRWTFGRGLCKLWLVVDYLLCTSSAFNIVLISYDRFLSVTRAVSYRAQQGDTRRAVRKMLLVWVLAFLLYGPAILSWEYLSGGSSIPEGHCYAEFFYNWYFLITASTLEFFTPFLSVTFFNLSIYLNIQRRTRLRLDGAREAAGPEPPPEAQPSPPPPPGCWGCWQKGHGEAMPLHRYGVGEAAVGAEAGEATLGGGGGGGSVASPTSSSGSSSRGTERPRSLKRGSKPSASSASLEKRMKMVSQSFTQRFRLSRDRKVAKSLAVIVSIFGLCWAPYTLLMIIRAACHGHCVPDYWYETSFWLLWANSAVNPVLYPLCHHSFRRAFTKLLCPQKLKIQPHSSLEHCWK

As a reminder, the melting point is the temperature of the solid-liquid transition. Molecule `CC(C)(C)c1ccc(OCCCCCCN2CCCCCC2)cc1.O=C(O)C(=O)O` [Compound 31, 1-(6-(4-tert-Butylphenoxy)hexyl)-azepane hydrogen oxalate] displayed a melting point of 130 to 132 °C. Besides, the inhibition at 1 µM on hMAO B turned out to be 23%.

Usually Ki stands for the equilibrium dissociation constant of an inhibitor or competing ligand from its target. Lower therefore signals higher affinity. As to `CC1CC(C)CN(CCCOc2ccc(C(C)(C)C)cc2)C1.O=C(O)C(=O)O` (stereo not drawn) [Compound 20, 1-(3-(4-tert-Butylphenoxy)propyl)-3,5-dimethylpiperidine hydrogen oxalate], the melting point lay in the range of 143 to 145 °C. For the same molecule, the affinity in data set [1] corresponds to a Ki of 341 nM. For the same molecule, the inhibition at 1 µM at hMAO B turned out to be 37%.

For the molecule `CC(C)(C)c1ccc(OCCCCCN2CCCCCC2)cc1.O=C(O)C(=O)O` [Compound 30, 1-(5-(4-tert-Butylphenoxy)pentyl)-azepane hydrogen oxalate], the melting point is 151 to 153 °C. In data set [1], this molecule registered a Ki of 324 nM. The inhibition at 1 µM on hMAO B turned out to be 18%.

Take `CC1CCCN(CCCCCOc2ccc(C(C)(C)C)cc2)C1.O=C(O)C(=O)O` (stereo not drawn) [Compound 14, 1-(5-(4-tert-Butylphenoxy)pentyl)-3-methylpiperidine hydrogen oxalate]: the melting point is 179 to 181 °C. This molecule also showed a Ki in data set [1] of 114 nM. Moreover, the inhibition at 1 µM at hMAO B worked out at 33%.

Regarding `CC1CC(C)CN(CCCCOc2ccc(C(C)(C)C)cc2)C1.O=C(O)C(=O)O` (stereo not drawn) [Compound 21, 1-(4-(4-tert-Butylphenoxy)butyl)-3,5-dimethylpiperidine hydrogen oxalate], the melting point was 170 to 172 °C. This molecule gave a Ki in data set [1] of 1380 nM. Besides, on hMAO B, the inhibition at 1 µM was determined as 35%.

The molecule `CC1CCCN(CCCCOc2ccc(C(C)(C)C)cc2)C1.O=C(O)C(=O)O` (stereo not drawn) [Compound 13, 1-(4-(4-tert-Butylphenoxy)butyl)-3-methylpiperidine hydrogen oxalate] returned a melting point of 148 to 150 °C. In addition, affinity in data set [1] was put at a Ki of 102 nM.

In turn, `CC1CCCN(CCCCCCOc2ccc(C(C)(C)C)cc2)C1.O=C(O)C(=O)O` (stereo not drawn) [Compound 15, 1-(6-(4-tert-Butylphenoxy)hexyl)-3-methylpiperidine hydrogen oxalate] returned a melting point of 140 to 142 °C. Also, the Ki in data set [1] worked out at 351 nM. Further, on hMAO B, the inhibition at 1 µM was found to be 13%.

Turning to `CC1(C)CCCN(CCCCOc2ccc(C(C)(C)C)cc2)C1.O=C(O)C(=O)O` [Compound 17, 1-(4-(4-tert-Butylphenoxy)butyl)-3,3-dimethylpiperidine hydrogen oxalate], the melting point was in the range of 140 to 142 °C. Moreover, the affinity in data set [1] corresponds to a Ki of 3440 nM. Further, the inhibition at 1 µM at hMAO B amounted to 38%.

Molecule `CC1CCN(CCCCCOc2ccc(C(C)(C)C)cc2)CC1.O=C(O)C(=O)O` [Compound 26, 1-(5-(4-tert-Butylphenoxy)pentyl)-4-methylpiperidine hydrogen oxalate] had a melting point of 167 to 170 °C. The Ki in data set [1] amounted to 531 nM. The inhibition at 1 µM at hMAO B was 39%.

`CC1CC(C)CN(CCCCCCOc2ccc(C(C)(C)C)cc2)C1.O=C(O)C(=O)O` (stereo not drawn) [Compound 23, 1-(6-(4-tert-Butylphenoxy)hexyl)-3,5-dimethylpiperidine hydrogen oxalate] had a melting point of 143 to 145 °C. Moreover, in data set [1], the Ki came out at 2080 nM. Further, the inhibition at 1 µM on hMAO B is 34%.

Consider `CC1CC(C)CN(CCCCCOc2ccc(C(C)(C)C)cc2)C1.O=C(O)C(=O)O` (stereo not drawn) [Compound 22, 1-(5-(4-tert-Butylphenoxy)pentyl)-3,5-dimethylpiperidine hydrogen oxalate], for which the melting point fell in the range of 175 to 178 °C. The Ki in data set [1] amounted to 2240 nM. The inhibition at 1 µM on hMAO B is 41%.

`CC(C)(C)c1ccc(OCCCCCN2CCCCC2)cc1.O=C(O)C(=O)O` [Compound 7, 1-(5-(4-tert-Butylphenoxy)pentyl)piperidine hydrogen oxalate] yielded a melting point of 170 to 172 °C. The molecule also displayed a Ki in data set [1] of 252 nM. The inhibition at 1 µM at hMAO B worked out at 28%.

Molecule `CC1CCN(CCCOc2ccc(C(C)(C)C)cc2)CC1.O=C(O)C(=O)O` [Compound 24, 1-(3-(4-tert-Butylphenoxy)propyl)-4-methylpiperidine hydrogen oxalate] returned a melting point of 158 to 160 °C. The affinity in data set [1], expressed as Ki, was 316 nM. Besides, the inhibition at 1 µM on hMAO B came out at 37%.

In the case of `CC1CCCCN1CCCCCOc1ccc(C(C)(C)C)cc1.O=C(O)C(=O)O` (stereo not drawn) [Compound 11, 1-(5-(4-tert-Butylphenoxy)pentyl)-2-methylpiperidine hydrogen oxalate], the melting point was 96 to 99 °C. In data set [1], the Ki came to 1560 nM. For the same molecule, at hMAO B, the inhibition at 1 µM was determined as 36%.

As for `CC1CCN(CCCCCCOc2ccc(C(C)(C)C)cc2)CC1.O=C(O)C(=O)O` [Compound 27, 1-(6-(4-tert-Butylphenoxy)hexyl)-4-methylpiperidine hydrogen oxalate], the melting point lay in the range of 136 to 139 °C. The Ki in data set [1] amounted to 1350 nM. Besides, the inhibition at 1 µM at hMAO B is 10%.

For `CC1CCN(CCCCOc2ccc(C(C)(C)C)cc2)CC1` [Compound 25, 1-(4-(4-tert-Butylphenoxy)butyl)-4-methylpiperidine hydrogen oxalate], the Ki in data set [1] is 400 nM. In addition, at hMAO B, the inhibition at 1 µM amounted to 33%.

Consider `CC(C)(C)c1ccc(OCCCCCCN2CCCCC2)cc1.O=C(O)C(=O)O` [Compound 8, 1-(6-(4-tert-Butylphenoxy)hexyl)piperidine hydrogen oxalate], for which the melting point was in the range of 156 to 158 °C. Further, the Ki in data set [1] amounted to 225 nM. Further, the inhibition at 1 µM at hMAO B stood at 13%.
